# Measurements taken from patent US11739100B2, “2,3-dihydro-1h-imidazo{1,2-a}pyrimidin-5-one and this 1,2,3,4-tetrahydropyrimido{1,2-a}pyrimidin-6-one derivatives comprising a substituted morpholine, preparation thereof and pharmaceutical use thereof” (SANOFI, priority 2012, dated 2023).
# Target: T1, recombinant Vps34 (Homo sapiens, UniProt Q8NEB9)
# T1 construct: purchased Invitrogen PV5126
# Experiment: Phosphorylation of phosphatidylinositol (PI) by Vps34 in vitro, ADP detected by TR-FRET (HTRF Transcreener ADP)
# Format: biochemical
# Conditions: 10 μM ATP, 55 μg/ml PI, approximately 3 nM Vps34, 1 hour at ambient temperature; absolute IC50, mean of two independent experiments; read-out: IC50 activity range
# T1 sequence (Q8NEB9 whole entry): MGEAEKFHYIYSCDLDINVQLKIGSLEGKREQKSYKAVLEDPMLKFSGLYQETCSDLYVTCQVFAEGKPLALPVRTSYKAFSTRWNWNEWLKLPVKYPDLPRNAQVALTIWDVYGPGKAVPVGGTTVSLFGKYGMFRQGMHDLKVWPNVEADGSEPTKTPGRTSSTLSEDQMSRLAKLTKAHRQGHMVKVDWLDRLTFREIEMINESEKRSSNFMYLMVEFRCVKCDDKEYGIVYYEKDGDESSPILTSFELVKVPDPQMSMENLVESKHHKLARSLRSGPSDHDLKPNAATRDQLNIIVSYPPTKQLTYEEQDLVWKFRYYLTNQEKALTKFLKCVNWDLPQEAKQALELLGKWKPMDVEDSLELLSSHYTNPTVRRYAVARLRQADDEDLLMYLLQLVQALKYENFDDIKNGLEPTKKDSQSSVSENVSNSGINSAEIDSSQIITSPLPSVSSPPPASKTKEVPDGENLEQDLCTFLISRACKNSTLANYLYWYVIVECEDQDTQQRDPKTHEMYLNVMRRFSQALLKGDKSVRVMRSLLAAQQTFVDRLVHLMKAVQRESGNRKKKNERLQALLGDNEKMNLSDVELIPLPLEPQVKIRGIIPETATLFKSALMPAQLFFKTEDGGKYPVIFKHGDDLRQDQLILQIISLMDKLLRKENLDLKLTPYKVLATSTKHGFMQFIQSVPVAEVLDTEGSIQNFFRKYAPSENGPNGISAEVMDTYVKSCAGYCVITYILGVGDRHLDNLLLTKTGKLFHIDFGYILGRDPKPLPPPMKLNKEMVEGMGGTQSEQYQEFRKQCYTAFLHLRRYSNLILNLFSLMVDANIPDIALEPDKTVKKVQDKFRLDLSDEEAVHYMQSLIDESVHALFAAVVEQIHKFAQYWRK
row,Structure (SMILES),IC50
1,"C[C@@H]1COCCN1c1nc2n(c(=O)c1F)CC[C@@H](C(F)(F)F)N2CCOCC(F)(F)F [Example 48, (S)-3-Fluoro-2-((R)-3-methylmorpholin-4-yl)-9-[2-(2,2,2-trifluoro-ethoxy)ethyl]-8-trifluoromethyl-6,7,8,9-tetrahydro-pyrimido[1,2-a]-pyrimidin-4-one]",< 0.01 µM
2,"C[C@@H]1COCCN1c1nc2n(c(=O)c1F)CC[C@@H](C(F)(F)F)N2CC(C)(C)O [Example 49, (S)-3-Fluoro-9-(2-hydroxy-2-methyl-propyl)-2-((R)-3-methylmorpholin-4-yl)-8-trifluoromethyl-6,7,8,9-tetrahydro-pyrimido[1,2-a]-pyrimidin-4-one]",< 0.01 µM
3,"C[C@@H]1COCCN1c1nc2n(c(=O)c1F)CC[C@@H](C(F)(F)F)N2CC(=O)c1cccnc1 [Example 50, (S)-3-Fluoro-2-((R)-3-methylmorpholin-4-yl)-9-(2-oxo-2-pyridin-3-ylethyl)-8-trifluoromethyl-6,7,8,9-tetrahydro-pyrimido[1,2-a]-pyrimidin-4-one]",< 0.01 µM
4,"C[C@@H]1COCCN1c1nc2n(c(=O)c1F)CC[C@@H](C(F)(F)F)N2c1ccc(C(F)F)nc1 [Example 53, (S)-9-(6-Difluoromethylpyridin-3-yl)-3-fluoro-2-((R)-3-methylmorpholin-4-yl)-8-trifluoromethyl-6,7,8,9-tetrahydro-pyrimido[1,2-a]-pyrimidin-4-one]",< 0.01 µM
5,"C[C@@H]1COCCN1c1nc2n(c(=O)c1F)CC[C@@H](C(F)(F)F)N2Cc1noc(C(C)(C)C)n1 [Example 54, (S)-9-(5-tert-Butyl-[1,2,4]oxadiazol-3-yl-methyl)-3-fluoro-2-((R)-3-methyl-morpholin-4-yl)-8-trifluoromethyl-6,7,8,9-tetrahydro-pyrimido[1,2-a]-pyrimidin-4-one]",< 0.01 µM
6,"C[C@@H]1COCCN1c1nc2n(c(=O)c1F)CC[C@@H](C(F)(F)F)N2c1ccncc1 [Example 55, (S)-3-Fluoro-2-((R)-3-methylmorpholin-4-yl)-9-pyridin-4-yl-8-trifluoromethyl-6,7,8,9-tetrahydro-pyrimido[1,2-a]-pyrimidin-4-one]",< 0.01 µM
7,"C[C@@H]1COCCN1c1nc2n(c(=O)c1F)CC[C@@H](C(F)(F)F)N2Cc1cncc(F)c1 [Example 57, (S)-3-Fluoro-9-(5-fluoropyridin-3-yl-methyl)-2-((R)-3-methylmorpholin-4-yl)-8-trifluoromethyl-6,7,8,9-tetrahydro-pyrimido[1,2-a]-pyrimidin-4-one]",< 0.01 µM
8,"C[C@@H]1COCCN1c1nc2n(c(=O)c1F)CC[C@@H](C(F)(F)F)N2Cc1cccnc1F [Example 58, (S)-3-Fluoro-9-(2-fluoropyridin-3-yl-methyl)-2-((R)-3-methylmorpholin-4-yl)-8-trifluoromethyl-6,7,8,9-tetrahydro-pyrimido[1,2-a]-pyrimidin-4-one]",< 0.01 µM

# More lines, now with the values ahead:
row,IC50,Structure (SMILES)
1,< 0.01 µM,"C[C@@H]1COCCN1c1nc2n(c(=O)c1F)CC[C@@H](C(F)(F)F)N2Cc1ccc(F)nc1 [Example 51, (S)-3-Fluoro-9-(6-fluoropyridin-3-yl-methyl)-2-((R)-3-methylmorpholin-4-yl)-8-trifluoromethyl-6,7,8,9-tetrahydro-pyrimido[1,2-a]-pyrimidin-4-one]"
2,< 0.01 µM,"C[C@@H]1COCCN1c1nc2n(c(=O)c1F)CC[C@@H](C(F)(F)F)N2Cc1ccc(Cl)nc1 [Example 52, (S)-9-(6-Chloro-pyridin-3-ylmethyl)-3-fluoro-2-((R)-3-methyl-morpholin-4-yl)-8-trifluoromethyl-6,7,8,9-tetrahydro-pyrimido[1,2-a]-pyrimidin-4-one]"
3,< 0.01 µM,"C[C@@H]1COCCN1c1nc2n(c(=O)c1F)CC[C@@H](C(F)(F)F)N2Cc1ccc(F)cn1 [Example 56, (S)-3-Fluoro-9-(5-fluoropyridin-2-yl-methyl)-2-((R)-3-methylmorpholin-4-yl)-8-trifluoromethyl-6,7,8,9-tetrahydro-pyrimido[1,2-a]-pyrimidin-4-one]"
